# Laboratory results from article PMC11445181 (Frontiers in Plant Science, 2024).
# Molecular target: T1, LcCOMT (Conioselinum anthriscoides, UniProt A0A0K1YW34)
# T1 construct: full-length cDNA in pET28a, His-tagged, E. coli BL21 (DE3), Ni-agarose purified; homodimer (N-terminal dimerization domain)
# T1 sequence (A0A0K1YW34 1-362): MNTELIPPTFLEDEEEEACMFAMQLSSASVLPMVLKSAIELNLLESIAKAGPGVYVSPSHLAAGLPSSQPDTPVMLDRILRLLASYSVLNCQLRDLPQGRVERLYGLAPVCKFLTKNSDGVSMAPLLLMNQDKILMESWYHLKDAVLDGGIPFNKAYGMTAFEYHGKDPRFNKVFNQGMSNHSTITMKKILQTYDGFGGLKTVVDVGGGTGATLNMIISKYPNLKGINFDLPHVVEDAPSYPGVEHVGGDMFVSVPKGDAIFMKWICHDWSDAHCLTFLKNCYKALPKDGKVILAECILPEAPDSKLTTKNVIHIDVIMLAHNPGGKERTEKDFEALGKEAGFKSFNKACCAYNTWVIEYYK
# Assay: inhibition of N-acetylserotonin methylation
# Assay type: biochemical
# Settings: 2.0 mM N-acetylserotonin; caffeic acid is itself a substrate (competing substrate)
compound,measurement,value
O=C(O)/C=C/c1ccc(O)c(O)c1 [caffeic acid],% reduction in activity at 1.0 mM,31.80%
